Measured values published in patent publication US20220096473A1, “METHOD FOR TREATING AN ACUTE MYELOID LEUKEMIA” (PTC THERAPEUTICS, INC., priority 2019, published 2022).

What was measured:
[1] = test system: MOLT human acute lymphoblastic leukemia (ALL) tumor cells; experiment: ALL mouse model, IV-inoculated MOLT human ALL tumor cells in NOD-SCID mice, survival; assay type: in vivo; settings: vehicle 70 days
Experimental: FIG. 6. Shown is a survival curve for an in vivo ALL (Acute Lymphocytic Leukemia) MOLT-4 (CD3 […]) xenograft tumor NSG mouse model after up to 160 days of treatment with Compound 2 vs. vs. mice treated with vehicle, Compound 1, doxorubicin (Dox) and cytarabine (Ara-C). Under various dosing regimens.
Male NOD-SCID mice were inoculated with MOLT human acute lymphoblastic leukemia (ALL) tumor cells from ATCC (1×10^7 cells in 200 μL PBS) by intravenous (IV) injection of 0.2 ml/mouse. Seven days after tumor inoculation, mice were randomized into seven groups of five mice per group, and each group was dosed as follows: (Group 1) orally administered vehicle of 0.5% HPMC and 0.1% Tween 80 daily, (Group 2) orally administered 10 mg/kg Compound 1 twice per week, (Group 3) orally administered 10 mg/kg Compound 2 daily, (Group 4) administered 1 mg/kg doxorubicin by intraperitoneal (IP) injection once per week, (Group 5) administered 0.5 mg/kg doxorubicin by IP injection once per week, (Group 6) administered 50 mg/kg Ara-C twice per week by IP injection, and (Group 7) administered 70 mg/kg Ara-C by IP injection once per week.

[2] = test system: CALM-AF10-mediated AML; experiment: CALM-AF10-mediated AML leukemogenesis in mouse and human models; settings: in vitro and in vivo
[3] = test system: P31-Fujioka cell line; experiment: P31-Fujioka cell line xenograft survival in immunodeficient NRG-SGM3 mice; assay type: in vivo, mouse; settings: oral Compound 1 from ten days after injection, up to 34 days of treatment, n=5 mice per group, P<0.002
Experimental: FIG. 1. Shown is a survival curve for an in vivo P31-Fujioka cell line xenograft tumor […] mouse model after up to 34 days of treatment with Compound 1 vs. vehicle treated animals (n=5 mice per group, *P<0.002).
Immunodeficient mice (NRG-SGM3) were injected with the P31-Fujioka cell line. Ten days after injection, engraftment of P31 cells in mice was confirmed by flow-cytometric assessment of the human CD45 marker (data not shown). One cohort of mice was orally administered Compound 1 and an age and engraftment matched hohort was administered vehicle control.

[4] = test system: microtubule polymerization; experiment: Mechanistic studies of microtubule polymerization; assay type: biochemical
Description: In addition, Compound 1 combines additively or synergistically with standard clinical regimens, yielding potent and durable cancer regression.

[5] = test system: MOLM13 human AML tumor cells; experiment: AML mouse model, IV-inoculated human AML tumor cells in NOD-SCID mice, survival; assay type: in vivo
Experimental: FIG. 3. Shown is a survival curve for an in vivo AML NSG mouse model after up to 75 days of treatment with Compound 1 vs. vehicle treated mice (n=5 in vehicle group and n=2 in Compound 1 group).
FIG. 5. Shown is a survival curve for an in vivo AML NSG mouse model after up to 80 days of treatment with a combination of Compound 1 and Compound 2 vs. mice treated with vehicle, Compound 1 alone and Compound 2 alone
The following study was conducted in a mouse model of acute myeloid leukemia (AML) based on intravenous (IV) injection of human […] into male non-obese diabetic (NOD) severe combined immunodeficiency (SID) mice. MOLT-4 cells are CD3 positive. The NOD-SCID mice were obtained from Jackson Laboratory, Bar Harbor Me.
Male NOD-SCID mice were inoculated with MOLM13 human AML tumor cells from ATCC (5×10^6 cells in 200 μL PBS) by intravenous (IV) injection of 0.2 ml/mouse. Three days after tumor inoculation, mice were randomized into four groups of five mice per group, and each group was dosed as follows once each day: (Group 1) orally administered vehicle (0.5% HPMC), (Group 2) orally administered 12.5 mg/kg of Compound 1 in HPMC, (Group 3) orally administered 10 mg/kg of Compound 2 in HPMC, and (Group 4) orally administered a combination of 12.5 mg/kg of Compound 1 and 10 mg/kg of Compound 2 in HPMC for up to 75 days.

[6] = test system: leukemia cell growth; settings: mouse xenograft models; cited from earlier work
[7] = test system: p53 mutant mediated AML; settings: cited from earlier work

## Nc1ccn([C@@H]2O[C@H](CO)[C@@H](O)[C@@H]2O)c(=O)n1 [Ara-C, cytarabine]
[1]; Group 6, 50 mg/kg IP twice per week
  maximum number of days of survival: 65 days
[1]; Group 7, 70 mg/kg IP once per week
  maximum number of days of survival: 70 days

## Cc1nc2ccc(F)cc2n1-c1nc(N)c(F)c(Nc2ccc(C(F)(F)F)cc2)n1 [Compound 1, 5-fluoro-2-(6-fluoro-2-methyl-1H-benzo[d]imidazol-1-yl)-N^4-[4-(trifluoromethyl)phenyl]pyrimidine-4,6-diamine]
[1]; Group 2, 10 mg/kg orally twice per week
  maximum number of days of survival: 65 days
[2]
  leukemogenesis: impairs leukemogenesis in vitro and in vivo
[3]
  latency of disease (survival curve) vs vehicle control: significantly delayed the latency of disease
[4]
  microtubule polymerization: inhibit microtubule polymerization
[5]; 12.5 mg/kg Compound 1 orally once each day
  survival vs mice administered Compound 2 alone: survived significantly longer
[5]; 12.5 mg/kg orally once each day in HPMC, up to 75 days
  survival (prolongation of life) vs vehicle: significant prolongation of life
[6]
  in vivo anti-leukemia activity: inhibited leukemia cell growth in vivo while sparing normal hematopoietic cells
[7]; p53 mutant mediated AML
  MCL-1 expression: reduced MCL-1 expression
[7]; patient-derived CD34+CD38low/- stem/progenitor cells
  induction of apoptosis: Apoptosis was induced in a p53-independent manner

## COc1ccc([C@H]2c3[nH]c4ccc(Cl)cc4c3CCN2C(=O)Oc2ccc(Cl)cc2)cc1 [Compound 2, 4-chlorophenyl (S)-6-chloro-1-(4-methoxyphenyl)-1,3,4,9-tetrahydro-2H-pyrido[3,4-b]indole-2-carboxylate]
[1]; Group 3, 10 mg/kg orally daily
  maximum number of days of survival: 160 days

## COc1cccc2c1C(=O)c1c(O)c3c(c(O)c1C2=O)C[C@@](O)(C(=O)CO)C[C@@H]3O[C@H]1C[C@H](N)[C@H](O)[C@H](C)O1 [doxorubicin]
[1]; Group 4, 1 mg/kg IP once per week
  maximum number of days of survival: 40 days
[1]; Group 5, 0.5 mg/kg IP once per week
  maximum number of days of survival: 40 days
